Laboratory results as given in PMC5870190, “A three-in-one-bullet for oesophageal cancer: replication fork collapse, spindle attachment failure and enhanced radiosensitivity generated by a ruthenium(II) metallo-intercalator” (Chemical Science, 2017).

Test system: MCF7 cells
Test: Micronuclei formation, MCF7
Type: cell-based
Conditions: MCF7, 40 μM Ru1, 24 h incubation
Description: Microscopy and immunofluorescence. Cells were seeded on ibidi 35 mm µ-dishes (Thistle Scientific), allowed to adhere for 24 h and treated as stated in the main text. Cell media was removed, cells washed with PBS and fixed with formaldehyde (4%, 10 mins). Cells were permeablised with Triton (0.5% in PBS, 5 mins) and washed with PBS. Samples were blocked with BSA (3% in PBS-T) for 1 h before incubation with primary antibody (either anti-α-tubulin or anti-γ H2AX, 1/500 dilution) in BSA (3% in PBS-T) for 1 h. Samples were washed 3x in PBS-T and incubated with Alexa Fluor-conjugated secondary antibodies (3% in PBS-T, 1 h, 1/250 dilution). After further washing (3x5 min PBS-T) samples were co-stained with DAPI (5 ng/ml, 2 min), fresh PBS added and visualised by confocal microscopy. Samples were visualised using a Zeiss LSM 780 or LSM 710 inverted confocal microscope and EC Plan-Neofluar 40x/1.30 Oil objectives. […]
For the determination of mutation induction, from the untreated and each treated condition, 2x10^5 cells were plated in 10 x 100 mm dishes in selective media (regular media

With [Ru(phen)2(tpphz)]^2+ [Ru1] the “Cells with micronuclei, Percentage” value was 6.2%.
